Two molecules from article PMC6407592, “Novel Re(I) tricarbonyl coordination compounds based on 2-pyridyl-1,2,3-triazole derivatives bearing a 4-amino-substituted benzenesulfonamide arm: synthesis, crystal structure, computational studies and inhibitory activity against carbonic anhydrase I, II, and IX isoforms†” (Journal of Enzyme Inhibition and Medicinal Chemistry, 2019) can be followed below.

The target of one data set is hCA I (Homo sapiens, UniProt P00915). The experiment in a line: stopped-flow CO2 hydrase assay, hCA I.
Sequence of hCA I (P00915 whole entry): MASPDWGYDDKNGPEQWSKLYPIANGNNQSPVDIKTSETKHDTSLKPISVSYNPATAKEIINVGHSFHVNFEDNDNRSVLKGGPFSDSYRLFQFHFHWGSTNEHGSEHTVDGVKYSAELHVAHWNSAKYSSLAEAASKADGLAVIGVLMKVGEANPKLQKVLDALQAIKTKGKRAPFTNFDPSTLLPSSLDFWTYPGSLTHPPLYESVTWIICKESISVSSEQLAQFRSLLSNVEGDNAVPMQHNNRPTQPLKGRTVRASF
The target in the next data set is hCA II (Homo sapiens, UniProt P00918). The experiment in a line: stopped-flow CO2 hydrase assay, hCA II.
In the next data set the target is hCA IX (Homo sapiens, UniProt Q16790). The experiment in a line: stopped-flow CO2 hydrase assay, hCA IX.

Usually melting point stands for the temperature of the solid-liquid transition. By Ki is commonly meant the dissociation constant of the complex between target and ligand, obtained from inhibition or displacement. The low end stands for a stronger hold on the target, the high end for a looser hold on the target.

Description for hCA II: An Applied Photophysics stopped-flow instrument was used for assaying the CA catalysed CO2 hydration activity. […] In particular, CO2 was bubbled in distilled deionised water for 30 min so that the water was saturated (the concentration at a specific temperature is known from literature). In addition, a CO2 assay kit (from Sigma) was used to measure the concentration in variously diluted solutions obtained from the saturated one (which was kept at the same temperature and a constant bubbling during the experiments). […] The uncatalysed rates were determined in the same manner and subtracted from the total observed rates. Stock solutions of inhibitor (0.1 mM) were prepared in distilled-deionised water and dilutions up to 0.01 nM were done thereafter with distilled-deionised water. Inhibitor and enzyme solutions were pre-incubated together for 15 min–2 h (or longer, i.e. 4–6 h) at room temperature (at 4 °C for the incubation periods longer than 15 min) prior to assay, in order to allow for the formation of the E-I complex. […]
Description for hCA IX: An Applied Photophysics stopped-flow instrument was used for assaying the CA catalysed CO2 hydration activity. […] In particular, CO2 was bubbled in distilled deionised water for 30 min so that the water was saturated (the concentration at a specific temperature is known from literature). In addition, a CO2 assay kit (from Sigma) was used to measure the concentration in variously diluted solutions obtained from the saturated one (which was kept at the same temperature and a constant bubbling during the experiments). […] The uncatalysed rates were determined in the same manner and subtracted from the total observed rates. Stock solutions of inhibitor (0.1 mM) were prepared in distilled-deionised water and dilutions up to 0.01 nM were done thereafter with distilled-deionised water. Inhibitor and enzyme solutions were pre-incubated together for 15 min–2 h (or longer, i.e. 4–6 h) at room temperature (at 4 °C for the incubation periods longer than 15 min) prior to assay, in order to allow for the formation of the E-I complex. The inhibition constants were obtained by non-linear least-squares methods using PRISM 3 and the Cheng-Prusoff equation[25] ^, [26], as reported earlier, and represent the mean from at least three different determinations. hCA I was purchased by Sigma-Aldrich and used without further purification, whereas all the other hCA isoforms were recombinant ones obtained in-house as reported earlier[27] ^, [28].

In the case of `NS(=O)(=O)c1ccc(-n2cc(-c3ccccn3)nn2)cc1` [3a, 4-(4–(2-pyridyl)-1H-1,2,3-triazol-1-yl)-benzenesulfonamide], the melting point fell in the range of 244 to 248 °C. Besides, affinity on hCA I was put at a Ki of 181 nM. The molecule also gave a Ki on hCA II of 4.1 nM. At hCA IX, the Ki worked out at 2.8 nM. The “Selectivity ratio I/IX” value on hCA IX (KI hCA I / KI hCA IX) is 64.75. Besides, the “Selectivity ratio II/IX” value on hCA IX (KI hCA II / KI hCA IX) stood at 1.46. For the same molecule, on hCA IX (hCA IX, Ki(3a) vs Ki(4a)), the “fold higher affinity than its rhenium complex 4a” value turned out to be 7 fold.
Turning to `NS(=O)(=O)c1ccc(Cn2cc(-c3ccccn3)nn2)cc1` [3b, 4–(4-(2-pyridyl)-1H-1,2,3-triazol-1-ylmethyl)-benzenesulfonamide], the melting point lay in the range of 192 to 195 °C. Further, the inhibitory constant (Ki) at hCA I came out at 305 nM. At hCA II, this molecule had a Ki of 56.1 nM.
